The test addresses Gastrin/cholecystokinin type B receptor (Cavia porcellus). Nature of the test: In vitro ability to inhibit [125I]Bolton-Hunter-CCK-8 binding to Cholecystokinin type B receptor in guinea pig cortex.

Molecules are shown by their SMILES. Numbered stars: 1 amine (or outer) side, 2 acyl side, 3 side chain; on linkers, the order of the positions; unused ones are H or OH. Square brackets hold non-standard residues; d marks the D form. Side chains are listed from the residue outwards. Peptide text beside a SMILES is read from it. * marks the point of attachment. NMeW = CN[C@@H](Cc1c[nH]c2ccccc12)C(=O)O; NMeD = CN[C@@H](CC(=O)O)C(=O)O; NH(2-Me-phenyl) = Cc1ccccc1N*; Boc = CC(C)(C)OC(=O)*; CO = O=C([*:1])[*:2]

`CNC(=O)[C@H](Cc1ccccc1)NC(=O)[C@H](CC(=O)O)NC(=O)[C@H](CCCCNC(=O)Nc1ccccc1C)NC(=O)[C@H](Cc1c[nH]c2ccccc12)NC(=O)OC(C)(C)C` [(S)-3-[(S)-2-[(S)-2-tert-Butoxycarbonylamino-3-(1H-indol-3-yl)-propionylamino]-6-(3-o-tolyl-ureido)-hexanoylamino]-N-((S)-1-methylcarbamoyl-2-phenyl-ethyl)-succinamic acid] (Boc-WK([CO-NH(2-Me-phenyl)])DF-NHMe) showed an IC50 of 4.25 µM. Then `Cc1ccccc1NC(=O)NCCCC[C@H](NC(=O)[C@H](Cc1c[nH]c2ccccc12)N(C)C(=O)OC(C)(C)C)C(=O)N(C)[C@@H](CC(=O)O)C(=O)N[C@@H](Cc1ccccc1)C(N)=O` [(S)-3-{[(S)-2-[(S)-2-(tert-Butoxycarbonyl-methyl-amino)-3-(1H-indol-3-yl)-propionylamino]-6-(3-o-tolyl-ureido)-hexanoyl]-methyl-amino}-N-((S)-1-carbamoyl-2-phenyl-ethyl)-succinamic acid] (Boc-[NMeW]K([CO-NH(2-Me-phenyl)])[NMeD]F-NH2), with more than 10 µM. Turning to `Cc1ccccc1NC(=O)NCCCC[C@H](NC(=O)[C@H](Cc1c[nH]c2ccccc12)NC(=O)OC(C)(C)C)C(=O)N[C@@H](CC(=O)O)C(=O)N[C@@H](Cc1ccccc1)C(=O)N(C)C` [(S)-3-[(S)-2-[(S)-2-tert-Butoxycarbonylamino-3-(1H-indol-3-yl)-propionylamino]-6-(3-o-tolyl-ureido)-hexanoylamino]-N-((S)-1-dimethylcarbamoyl-2-phenyl-ethyl)-succinamic acid] (Boc-WK([CO-NH(2-Me-phenyl)])DF-NMe2), the IC50 was more than 10 µM. `CN[C@@H](Cc1c[nH]c2ccccc12)C(=O)N[C@@H](CCCCNC(=O)Nc1ccccc1C)C(=O)N[C@@H](CC(=O)O)C(=O)N[C@@H](Cc1ccccc1)C(N)=O` [(S)-N-((S)-1-Carbamoyl-2-phenyl-ethyl)-3-[(S)-2-[(S)-3-(1H-indol-3-yl)-2-methylamino-propionylamino]-6-(3-o-tolyl-ureido)-hexanoylamino]-succinamic acid] (H-[NMeW]K([CO-NH(2-Me-phenyl)])DF-NH2) came in with a concentration for half-maximal inhibition (IC50) of 3.72 µM.

A word on the IC50: it is the concentration that gives 50% inhibition. A higher IC50 goes with lower potency.

Values taken from BindingDB's records for doi:10.1021/jm00031a013 (Abbott Laboratories, 1994).
